In general, EC50 refers to the concentration needed to bring the measured effect to its halfway point.

This test has as its system SARS-CoV-2 strain USA-WA1/2020. The test can be described thus: microbe, parasite or virus in culture. The format is cell-based. The settings on record: Severe acute respiratory syndrome coronavirus 2, HeLa-ACE2, 24 h, HeLa-ACE2 cells, SARS-CoV-2 infection, 24 h; read-out: EC50, uM (Hela).
As to `O=C1NCC[C@H]1C[C@H](NC(=O)[C@@H]1CC2(CC2)CN1C(=O)[C@H](O)c1ccccc1)C(=O)COC(F)(F)F` [Compound 412, (S)-5-((R)-2-hydroxy-2-phenylacetyl)-N-((S)-3-oxo-1-((S)-2-oxopyrrolidin-3-yl)-4-(trifluoromethoxy)butan-2-yl)-5-azaspiro[2.4]-heptane-6-carboxamide], the concentration giving a half-maximal response (EC50) was 0.05 to 0.2 µM.

Regarding `CC1(C)[C@@H]2[C@@H](C(=O)N[C@@H](C[C@@H]3CCNC3=O)C(=O)COC(F)(F)F)N(C(=O)[C@H](O)c3ccccc3)C[C@@H]21` [Compound 413, (1R,2S,5S)-3-((R)-2-hydroxy-2-phenylacetyl)-6,6-dimethyl-N-((S)-3-oxo-1-((S)-2-oxopyrrolidin-3-yl)-4-(trifluoromethoxy)butan-2-yl)-3-azabicyclo[3.1.0]-hexane-2-carboxamide], the EC50 was less than 0.05 µM.

Consider `O=C1NCC[C@H]1C[C@H](NC(=O)[C@@H]1[C@H]2CCC[C@H]2CN1C(=O)[C@H](O)c1ccccc1)C(=O)COC(F)(F)F` [Compound 414, (1S,3aR,6aS)-2-((R)-2-hydroxy-2-phenylacetyl)-N-((S)-3-oxo-1-((S)-2-oxopyrrolidin-3-yl)-4-(trifluoromethoxy)butan-2-yl)octahydrocyclo-penta[c]pyrrole-1-carboxamide], for which the EC50 is less than 0.05 µM.

Turning to `O=C1NCC[C@H]1C[C@H](NC(=O)[C@@H]1CC2(CC2)CN1C(=O)[C@@H](O)c1ccccc1)C(=O)COC(F)(F)F` [Compound 415, (S)-5-((S)-2-hydroxy-2-phenylacetyl)-N-((S)-3-oxo-1-((S)-2-oxopyrrolidin-3-yl)-4-(trifluoromethoxy)butan-2-yl)-5-azaspiro[2.4]heptane-6-carboxamide], the EC50 fell in the range of 0.05 to 0.2 µM.

For the compound `CC1(C)[C@@H]2[C@@H](C(=O)N[C@@H](C[C@@H]3CCNC3=O)C(=O)COC(F)(F)F)N(C(=O)[C@@H](O)c3ccccc3)C[C@@H]21` [Compound 416, (1R,2S,5S)-3-((S)-2-hydroxy-2-phenylacetyl)-6,6-dimethyl-N—((S)-3-oxo-1-((S)-2-oxopyrrolidin-3-yl)-4-(trifluoromethoxy)butan-2-yl)-3-azabicyclo[3.1.0]hexane-2-carboxamide], the EC50 was less than 0.05 µM.

With `O=C1NCC[C@H]1C[C@H](NC(=O)[C@@H]1[C@H]2CCC[C@H]2CN1C(=O)[C@@H](O)c1ccccc1)C(=O)COC(F)(F)F` [Compound 417, (1S,3aR,6aS)-2-((S)-2-hydroxy-2-phenylacetyl)-N-((S)-3-oxo-1-((S)-2-oxopyrrolidin-3-yl)-4-(trifluoromethoxy)butan-2-yl)octahydrocyclo-penta[c]pyrrole-1-carboxamide], the EC50 is less than 0.05 µM.

With `O=C1NCC[C@H]1C[C@H](NC(=O)[C@@H]1CC2(CC2)CN1C(=O)C(O)c1ccccn1)C(=O)COC(F)(F)F` (stereo partly drawn) [Compound 418, (6S)-5-(2-hydroxy-2-(pyridin-2-yl)acetyl)-N-((S)-3-oxo-1-((S)-2-oxopyrrolidin-3-yl)-4-(trifluoromethoxy)butan-2-yl)-5-azaspiro[2.4]heptane-6-carboxamide], the EC50 was 0.05 to 0.2 µM.

On to `O=C1NCC[C@H]1C[C@H](NC(=O)[C@@H]1CC2(CC2)CN1C(=O)C(O)c1cccnc1)C(=O)COC(F)(F)F` (stereo partly drawn) [Compound 419, (6S)-5-(2-hydroxy-2-(pyridin-3-yl)acetyl)-N-((S)-3-oxo-1-((S)-2-oxopyrrolidin-3-yl)-4-(trifluoromethoxy)butan-2-yl)-5-azaspiro[2.4]heptane-6-carboxamide], for which the EC50 fell in the range of 0.5 to 1 µM.

Turning to `O=C1NCC[C@H]1C[C@H](NC(=O)[C@@H]1CC2(CC2)CN1C(=O)C1(O)CC1)C(=O)COC(F)(F)F` [Compound 420, (S)-5-(l-hydroxycyclopropane-1-carbonyl)-N-((S)-3-oxo-1-((S)-2-oxopyrrolidin-3-yl)-4-(trifluoromethoxy)butan-2-yl)-5-azaspiro[2.4]heptane-6-carboxamide], the EC50 is 0.05 to 0.2 µM.

Source of the values: patent US11708348B2, “Protease inhibitors for treatment of coronavirus infections” (The Scripps Research Institute, priority 2021, dated 2023).
